According to patent US20210292330A1, “PYRROLIDINE-FUSED HETEROCYCLES” (Erasca, Inc., priority 2020, published 2021):

Molecular target: T1, KRAS 4B G12C protein (Homo sapiens, UniProt P01116, G12C)
T1 construct: This protein contained 188 amino acids in total, including an N-terminal 6-Histidine tag; made in house; host or cells: E. coli BL21
Experiment: In vitro covalent adduct formation (CAF) assay by LC-MS
Format: binding
Settings: compound 10 μM, protein 5 μM, 22° C., percentage of protein bound by the compound
Procedure: In vitro covalent adduct formation assay: Covalent adduct formation (CAF) reactions between Cys12 of the KRAS 4B G12C protein and some of the compounds of Table 1 were measured in vitro using liquid chromatography-mass spectrometry (LC-MS).
Recombinant Human KRAS 4B protein containing the G12C mutation was used in compound screening experiments. This protein contained 188 amino acids in total, including an N-terminal 6-Histidine tag, followed by a Tobacco Etch Virus (TEV) tag, followed by residues 1-169 of the native KRAS 4B sequence. The exact mass of the protein was 21,310 Da as determined by mass spectrometry. The full amino acid sequence is shown below:
The recombinant protein was expressed in E. coli BL21 cells and purified using affinity chromatography via a Ni-NTA column. […] Pure KRAS 4B G12C protein was diluted to a concentration of 5 μM in Tris Buffered Saline, pH 7.4. The compounds were dissolved in DMSO and added to the diluted protein to make a 10 μM concentration. The total DMSO concentration in the reaction was 4%. The reaction was mixed by pipetting and incubated at 22° C. for one hour. Aliquots of the reaction were taken over time and diluted 2:1 in 0.1% formic acid. The intact mass of the protein samples was measured by LC-MS using a QExactive+ mass spectrometer (Thermo Scientific). An amount of 500 ng total protein was injected onto a C8 reverse phase column, eluted with a seven-minute gradient of 30%-90% acetonitrile/0.1% formic acid, and analyzed for intact mass by the mass spectrometer. Adducts identified were confirmed to be within 1 Dalton of the expected mass, and the relative ratios of free:adduct protein were used to quantify the percentage of protein bound by the compound. CAF reactions were run in duplicate, with a typical variability of ±5%.

Compound	CAF (10 minutes/60 minutes) at 10 micromolar: 10 minutes	CAF (10 minutes/60 minutes) at 10 micromolar: 60 minutes
C=CC(=O)N1CCN(c2nc(OC[C@@H]3CCCN3C)nc3c2CN(Cc2cc(O)ccc2C)C3)[C@@H](C)C1 [1-1, 1-[(3S)-4-{6-[(5-hydroxy-2-methylphenyl)methyl]-2-{[(2S)-1-methylpyrrolidin-2-yl]methoxy}-5H,7H-pyrrolo[3,4-d]pyrimidin-4-yl}-3-methylpiperazin-1-yl]prop-2-en-1-one]	69%	93%
C=CC(=O)N1CCN(c2nc(OC[C@@H]3CCCN3C)nc3c2CN(Cc2cc(OC)ccc2C)C3)[C@@H](C)C1 [1-2]	0%	4%
C=CC(=O)N1CCN(c2nc(OC[C@@H]3CCCN3C)nc3c2CN(Cc2c(C)cccc2C)C3)[C@@H](C)C1 [1-3]	6%	33%
C=CC(=O)N1CCN(c2nc(OC[C@@H]3CCCN3C)nc3c2CN(Cc2cc(F)cc(F)c2)C3)C[C@@H]1CC#N [1-12]	28%	74%
C=CC(=O)N1CCN(c2nc(OC[C@@H]3CCCN3C)nc3c2CN(Cc2cc(F)cc(F)c2)C3)[C@@H](C)C1 [1-13]	0%/ 0%	0%/ 0%
C=CC(=O)N1CCN(c2nc(OC[C@@H]3CCCN3C)nc3c2CN(Cc2c(F)cccc2F)C3)[C@@H](C)C1 [1-14]	0%	8%
C=CC(=O)N1CCN(c2nc(OC[C@@H]3CCCN3C)nc3c2CN(Cc2cc(C(F)(F)F)ccc2C)C3)[C@@H](C)C1 [1-15]	0%/ 0%	0%/ 0%
C=CC(=O)N1C[C@H](C)N(c2nc(OC[C@@H]3CCCN3C)nc3c2CN(Cc2cc(O)ccc2C)C3)C[C@H]1C [1-18]	21%	65%
C=CC(=O)N1CCN(c2nc(OC[C@@H]3CCCN3C)nc3c2CN(Cc2cc(F)ccc2C)C3)[C@@H](C)C1 [1-20]	0%	6%
C=CC(=O)N1C[C@H](C)N(c2nc(OC[C@@H]3CCCN3C)nc3c2CN(Cc2c(C)ccc(O)c2C)C3)C[C@H]1C [1-21]	20%	63%
C=CC(=O)N1C[C@H](C)N(c2nc(OC[C@@H]3CCCN3C)nc3c2CN(Cc2c(C)ccc4[nH]ncc24)C3)C[C@H]1C [1-22]	1%	15%
C=CC(=O)N1CCN(c2nc(OC[C@@H]3CCCN3C)nc3c2CN(C(=O)c2cc(O)ccc2C)C3)[C@@H](C)C1 [1-23, 1-((S)-4-(6-(5-hydroxy-2-methylbenzoyl)-2-(((S)-1-methylpyrrolidin-2-yl)methoxy)-6,7-dihydro-5H-pyrrolo[3,4-d]pyrimidin-4-yl)-3-methylpiperazin-1-yl)prop-2-en-1-one]	9%	35%
C=CC(=O)N1CCN(c2nc(OC[C@@H]3CCCN3C)nc3c2CN(C(=O)c2cccc(C(F)F)c2)C3)[C@@H](C)C1 [1-24]	0%/ 0%	0%/ 0%
C=CC(=O)N1CCN(c2nc(OC[C@@H]3CCCN3C)nc3c2CN(Cc2cc(F)ccc2Cl)C3)C[C@@H]1CC#N [1-25]	78%	93%
C=CC(=O)N1CCN(c2nc(OC[C@@H]3CCCN3C)nc3c2CN(Cc2cc(Cl)ccc2C)C3)[C@@H](C)C1 [1-30]	0%	7%
C=CC(=O)N1C[C@H](C)N(c2nc(OC[C@@H]3CCCN3C)nc3c2CN(Cc2cc(O)ccc2F)C3)C[C@H]1C [1-32]	7%	41%
C=CC(=O)N1CCN(c2nc(OC[C@@H]3CCCN3C)nc3c2CN(Cc2cc(Cl)ccc2F)C3)[C@@H](C)C1 [1-33]	0%	5%
C=CC(=O)N1CCN(c2nc(OC[C@@H]3CCCN3C)nc3c2CN(Cc2cc(F)ccc2Cl)C3)[C@@H](C)C1 [1-34]	0%	14%
C=CC(=O)N1CCN(c2nnc(OC)c3c2CN(Cc2cc(O)ccc2C)C3)[C@@H](C)C1 [1-37]	0%/ 0%	0%/ 0%

Results, then the compound that gave them:

CAF (10 minutes/60 minutes) at 10 micromolar: 10 minutes	CAF (10 minutes/60 minutes) at 10 micromolar: 60 minutes	Compound
65%	93%	C=CC(=O)N1CCN(c2nc(OC[C@@H]3CCCN3C)nc3c2CN(Cc2cc(OC)ccc2C)C3)C[C@@H]1CC#N [1-6]
96%	97%	C=CC(=O)N1CCN(c2nc(OC[C@@H]3CCCN3C)nc3c2CN(Cc2c(O)cccc2F)C3)C[C@@H]1CC#N [1-7, 2-((S)-1-acryloyl-4-(6-(2-fluoro-6-hydroxybenzyl)-2-(((S)-1-methylpyrrolidin-2-yl)methoxy)-6,7-dihydro-5H-pyrrolo[3,4-d]pyrimidin-4-yl)piperazin-2-yl)acetonitrile]
20%	62%	C=CC(=O)N1CCN(c2nc(OC[C@@H]3CCCN3C)nc3c2CN(Cc2cc(C(F)(F)F)ccc2C)C3)C[C@@H]1CC#N [1-8]
35%	85%	C=CC(=O)N1CCN(c2nc(OC[C@@H]3CCCN3C)nc3c2CN(c2cccc4ccccc24)C3)C[C@@H]1CC#N [1-9, 2-[(2S)-4-(2-{[(2S)-1-methylpyrrolidin-2-yl]methoxy}-6-(naphthalen-1-yl)-5H,7H-pyrrolo[3,4-d]pyrimidin-4-yl)-1-(prop-2-enoyl)piperazin-2-yl]acetonitrile]
87%	98%	C=CC(=O)N1CCN(c2nc(OC[C@@H]3CCCN3C)nc3c2CN(Cc2cc(F)ccc2C)C3)C[C@@H]1CC#N [1-11]
40%	86%	C=CC(=O)N1CCN(c2nc(OC[C@@H]3CCCN3C)nc3c2CN(Cc2cccc4cccc(C)c24)C3)C[C@@H]1CC#N [1-16]
90%	99%	C=CC(=O)N1CCN(c2nc(OC[C@@H]3CCCN3C)nc3c2CN(c2cccc4cccc(C)c24)C3)C[C@@H]1CC#N [1-17, 2-((S)-1-acryloyl-4-(6-(8-methylnaphthalen-1-yl)-2-(((S)-1-methylpyrrolidin-2-yl)methoxy)-6,7-dihydro-5H-pyrrolo[3,4-d]pyrimidin-4-yl)piperazin-2-yl)acetonitrile]
74%/ 74%	74%/ 74%	C=CC(=O)N1CCN(c2nc(OC[C@@H]3CCCN3C)nc3c2CN(Cc2cc(O)ccc2Cl)C3)C[C@@H]1CC#N [1-26, 2-((S)-1-acryloyl-4-(6-(2-chloro-5-hydroxybenzyl)-2-(((S)-1-methylpyrrolidin-2-yl)methoxy)-6,7-dihydro-5H-pyrrolo[3,4-d]pyrimidin-4-yl)piperazin-2-yl)acetonitrile]
68%	97%	C=CC(=O)N1CCN(c2nc(OC[C@@H]3CCCN3C)nc3c2CN(Cc2cc(F)ccc2F)C3)C[C@@H]1CC#N [1-27]
94%	98%	C=CC(=O)N1CCN(c2nc(OC[C@@H]3CCCN3C)nc3c2CN(Cc2cc(Cl)ccc2Cl)C3)C[C@@H]1CC#N [1-28]
98%	99%	C=CC(=O)N1CCN(c2nc(OC[C@@H]3CCCN3C)nc3c2CN(Cc2c(C)cccc2C)C3)C[C@@H]1CC#N [1-29]
0%	6%	C=CC(=O)N1CCN(c2nc(OC[C@@H]3CCCN3C)nc3c2CN(c2cccc4cccc(C)c24)C3)[C@@H](C)C1 [1-31]
56%	91%	C=CC(=O)N1CCN(c2nc(OC[C@@H]3CCCN3C)nc3c2CN(Cc2cccc(F)c2)C3)C[C@@H]1CC#N [1-35]
91%	97%	C=CC(=O)N1CCN(c2nc(OC[C@@H]3CCCN3C)nc3c2CN(Cc2c(F)cccc2OC)C3)C[C@@H]1CC#N [1-36]
97%/ 97%	97%/ 97%	C=CC(=O)N1CCN(c2nc(OC[C@@H]3CCCN3C)nc3c2CN(Cc2c(Cl)cccc2OC)C3)C[C@@H]1CC#N [1-38]
